What was measured:
[1] = Plasma levels of codeine in rats after intravenous or intranasal administration (HPLC)
Protocol: One hundred μL of rat plasma was treated with 100 μL of acetonitrile to precipitate the proteins. This mixture was centrifuged for 5 minutes at 5,000×g. The clear supernatant was injected onto the HPLC column.
The HPLC system included the following:
Column: Altex 5 micron Ultrasphere, 4.6 mm×25 cm
Mobile Phase: Acetonitrile: 0.01 M Acetate buffer (pH 4.0)−50:50
Standard Curve: See FIG. 1

[2] = Penetration of codeine into CSF of rats after intravenous or intranasal administration (HPLC); conditions: 60 minutes post-dose
Protocol: At 60 minutes post-dose, the rats were sacrificed, and the CSF (0.1 ml) was recovered and injected directly onto the HPLC column.

[3] = in vivo; cited from earlier work
[4] = rat, plasma, inhaled or intranasal, 10 mg/kg
[5] = rat, plasma, other: intranasal, 5 mg/kg
[6] = rat, plasma, other: intranasal, 10 mg/kg

## COc1ccc2c3c1O[C@H]1[C@@H](O)C=C[C@H]4[C@@H](C2)N(C)CC[C@@]341 [Codeine]
[1]; rat, plasma, inhaled or intranasal, 5 mg/kg
  AUC(0-t): 1480 ng·h/mL
[1]; [4]
  AUC(0-t): 2840 ng·h/mL
  bioavailability: 115%
[1]; rat, plasma, iv, 10 mg/kg
  AUC(0-t): 2460 ng·h/mL
  concentration at 0 min: 19400 ng/mL
  concentration at 2 min: 9400 ng/mL
  concentration at 5 min: 5200 ng/mL
  concentration at 10 min: 2700 ng/mL
  concentration at 20 min: 2040 ng/mL
  concentration at 40 min: 1220 ng/mL
  concentration at 60 min: 860 ng/mL
[1]; [5]
  concentration at 0 min: 0 ng/mL
  concentration at 2 min: 840 ng/mL
  concentration at 5 min: 2880 ng/mL
  concentration at 10 min: 3150 ng/mL
  concentration at 20 min: 2240 ng/mL
  concentration at 40 min: 600 ng/mL
  concentration at 60 min: 560 ng/mL
[1]; [6]
  concentration at 0 min: 0 ng/mL
  concentration at 2 min: 1400 ng/mL
  concentration at 5 min: 5100 ng/mL
  concentration at 10 min: 7620 ng/mL
  concentration at 20 min: 3320 ng/mL
  concentration at 40 min: 1420 ng/mL
  concentration at 60 min: 1100 ng/mL
[1]; rats, IN vs IV
  Absorption following intranasal administration compared with intravenous: rapidly and completely absorbed
[2]
  CSF levels for 5 mg/kg intranasally compared with 10 mg/kg intravenously: much higher
[3]
  Half-life in plasma: 2 to 4 h
